What was measured:
Type in all cases: in vivo
[1] = tested on: non-transformed tobacco plants (Wt); experiment: Symptoms due to herbicide application on tobacco plants (damage classes 0-3); details: 50 g Al/ha, one week after application
Source text: (§1) Seeds harvested from TO transformants will be put on standard soil for germination. Three weeks later plantlets (T1) will be transferred to single pots and grown under standard cultivation conditions (PCT/EP2010/070575, published as WO 2011/076889). Two weeks later, plants were sprayed with several N-(tetrazol-4-yl)- or N-(triazol-3-yl)arylcarboxamides as defined above.
(§2) Tables F1 to F5: Evaluation of the Symptoms Observed Due to the Application of the Herbicides on Transgenic Tobacco Plants, Expressing the Mutant Pseudomonas fluorescens HPPD G336W, the Avena HPPD (AvHPPD), the HPPD from Kordia algicida FMP27 or the HPPD from Blepharisma japonicum (FMP37), Compared to Non-Tranformed Tobacco Plants (“Wt”).
(§3) The herbicides (with “g Al/ha” meaning “g active ingredient/ha”) were applied on 8 to 10 plants originated from 1 to 3 independent transgenic events per transgene.
(§4) The symptoms were evaluated and classified as following: • 3=Very strong damage • 2=Strong damage • 1=Light and transient damage • 0=No damage

[2] = tested on: transgenic tobacco plants expressing Avena HPPD (AvHPPD); experiment: Symptoms due to herbicide application on transgenic tobacco plants (damage classes 0-3); details: AvHPPD line 659; 50 g Al/ha; one week after application
Source text: (§5) Genes coding for the selected HPPD were obtained from a member of the group of organisms consisting of Avena sativa, Pseudomonas fluorescens mutant G336W, Blepharisma japonicum and Kordia algicida and cloned into the binary vector pBin19 allowing the integration of DNA into the tobacco genome, under the control of the CaMV35S promoter. For the cloning procedures, see A2 above for Avena sativa, see B2 above for Pseudomonas fluorescens, mutant G336W, see PCT/EP2010/070567 (published as WO 2011/076882, Example 5; for Blepharisma japonicum (FMP37) and see PCT/EP2010/070575, Example 5 for Kordia algicida (FMP27). Between the sequence corresponding to the promoter and the sequence coding for the HPPD a DNA sequence coding for a transit peptide to the chloroplast was inserted, in order to add at the N-terminal extremity of the protein a target signal to allow the localization of the HPPD protein into the plant chloroplast.
as §1, §2, §3, §4

[3] = tested on: transgenic tobacco plants expressing HPPD from Blepharisma japonicum (FMP37); experiment: as above; details: 50 g Al/ha, one week after application
Source text: as §5, §1, §2, §3, §4

[4] = tested on: transgenic tobacco plants expressing HPPD from Kordia algicida FMP27; experiment: as above; details: 50 g Al/ha, one week after application
Source text: as §5, §1, §2, §3, §4

[5] = tested on: transgenic tobacco plants expressing mutant Pseudomonas fluorescens HPPD G336W (PfHPPD-G336W); experiment: as above; details: PfHPPD-G336W line 646; 50 g Al/ha; one week after application
Source text: as §5, §1, §2, §3, §4

[6] = tested on: transgenic tobacco plants expressing tolerant HPPD enzymes; experiment: Tolerance of tobacco plants expressing tolerant HPPD enzymes (all transgenes)
Source text: as §5, §1, §2, §3, §4

[7] = tested on: soybean plants expressing Pseudomonas fluorescens G336W mutant, FMP 27 and FMP 37; experiment: Tolerance to HPPD inhibitors of soybean plants expressing tolerant HPPD enzymes; details: T1 soybean plants; one week after application
Source text: Genes coding for the selected HPPD were obtained from a member of the group of organisms consisting of Blepharisma japonicum and Kordia algicida and cloned into an appropriate binary vector allowing the integration of DNA into the soybean genome, under the control of the CaMV35S promoter. For the respective cloning procedures, see WO2011076882 (PCT/EP2010/070567), Example 9; for Blepharisma japonicum (FMP37) and WO2011076889 (PCT/EP2010/070575), Example 9 for Kordia algicida (FMP27).
Between the sequence corresponding to the promoter and the sequence coding for the HPPD a DNA sequence coding for a transit peptide to the chloroplast was inserted, in order to add at the N-terminal extremity of the protein a target signal to allow the localization of the HPPD protein into the plant chloroplast. By using the vectors “pFCO112” (Blepharisma japonicum, WO2011076882), pFCO116 (Korida algicida, WO2011076889), and pFCO117” (see Example B2, above), soybean transformation was achieved as described in Example 10 of WO2011076882 (PCT/EP2010/070567) for Blepharisma japonicum (FMP37) and WO2011076889 (PCT/EP2010/070575) for Kordia algicida (FMP27). Seeds from TO events showing tolerance to tembotrione were harvested.
T1 Soybean seeds were transferred to single pots and grown under standard cultivation conditions, see WO2011076882.
Two weeks later, plants will be sprayed with several N-(tetrazol-4-yl)- or N-(triazol-3-yl)arylcarboxamides as defined above.

[8] = tested on: cotton plants expressing FMP 27 and FMP 37; experiment: Tolerance to HPPD inhibitors of cotton plants expressing tolerant HPPD enzymes; details: T1 cotton plants; one week after application
Source text: Genes coding for the selected HPPD were obtained from a member of the group of organisms consisting of Blepharisma japonicum and Kordia algicida and cloned into an appropriate binary vector allowing the integration of DNA into the cotton genome, under the control of the CaMV35S promoter. For the respective cloning procedures, see WO2011076882 (PCT/EP2010/070567), Example 11; for Blepharisma japonicum (FMP37) and WO2011076889 (PCT/EP2010/070575), Example 11 for Kordia algicida (FMP27).
Between the sequence corresponding to the promoter and the sequence coding for the HPPD a DNA sequence coding for a transit peptide to the chloroplast was inserted, in order to add at the N-terminal extremity of the protein a target signal to allow the localization of the HPPD protein into the plant chloroplast. Cotton transformation was achieved as described in Example 12 of WO2011076882 (PCT/EP2010/070567) for Blepharisma japonicum (FMP37) and WO2011076889 (PCT/EP2010/070575) for Kordia algicida (FMP27). Seeds from T0 events showing tolerance to tembotrione were harvested.
T1 Cotton seeds were transferred to single pots and grown under standard cultivation conditions, see WO2011076882 (PCT/EP2010/070567) for Blepharisma japonicum (FMP37) and WO2011076889 (PCT/EP2010/070575) for Kordia algicida (FMP27).
At least 4 weeks later, plants will be sprayed with several N-(tetrazol-4-yl)- or N-(triazol-3-yl)arylcarboxamides as defined above.

Structure (SMILES): CCOc1c(S(C)(=O)=O)ccc(C(=O)Nc2nnnn2C)c1Cl [Compound 4-278]
- number of plants with Damage 0 (No damage) [1]: 0
- number of plants with Damage 1 (Light and transient damage) [1]: 0
- number of plants with Damage 2 (Strong damage) [1]: 0
- number of plants with Damage 3 (Very strong damage) [1]: 10
- number of plants with Damage 0 (No damage) [2]: 9
- number of plants with Damage 1 (Light and transient damage) [2]: 0
- number of plants with Damage 2 (Strong damage) [2]: 0
- number of plants with Damage 3 (Very strong damage) [2]: 1
- number of plants with Damage 0 (No damage) ([3]; FMP37 line 749): 5
- number of plants with Damage 1 (Light and transient damage) ([3]; FMP37 line 749): 4
- number of plants with Damage 2 (Strong damage) ([3]; FMP37 line 749): 0
- number of plants with Damage 3 (Very strong damage) ([3]; FMP37 line 749): 1
- number of plants with Damage 0 (No damage) ([3]; FMP37 line 754): 5
- number of plants with Damage 1 (Light and transient damage) ([3]; FMP37 line 754): 4
- number of plants with Damage 2 (Strong damage) ([3]; FMP37 line 754): 0
- number of plants with Damage 3 (Very strong damage) ([3]; FMP37 line 754): 1
- number of plants with Damage 0 (No damage) ([3]; FMP37 line 795): 4
- number of plants with Damage 1 (Light and transient damage) ([3]; FMP37 line 795): 3
- number of plants with Damage 2 (Strong damage) ([3]; FMP37 line 795): 0
- number of plants with Damage 3 (Very strong damage) ([3]; FMP37 line 795): 3
- number of plants with Damage 0 (No damage) ([4]; FMP27 line 733): 6
- number of plants with Damage 1 (Light and transient damage) ([4]; FMP27 line 733): 4
- number of plants with Damage 2 (Strong damage) ([4]; FMP27 line 733): 0
- number of plants with Damage 3 (Very strong damage) ([4]; FMP27 line 733): 0
- number of plants with Damage 0 (No damage) ([4]; FMP27 line 734): 6
- number of plants with Damage 1 (Light and transient damage) ([4]; FMP27 line 734): 3
- number of plants with Damage 2 (Strong damage) ([4]; FMP27 line 734): 0
- number of plants with Damage 3 (Very strong damage) ([4]; FMP27 line 734): 1
- number of plants with Damage 0 (No damage) ([4]; FMP27 line 735): 6
- number of plants with Damage 1 (Light and transient damage) ([4]; FMP27 line 735): 2
- number of plants with Damage 2 (Strong damage) ([4]; FMP27 line 735): 0
- number of plants with Damage 3 (Very strong damage) ([4]; FMP27 line 735): 2
- number of plants with Damage 0 (No damage) [5]: 6
- number of plants with Damage 1 (Light and transient damage) [5]: 3
- number of plants with Damage 2 (Strong damage) [5]: 0
- number of plants with Damage 3 (Very strong damage) [5]: 1
- tolerance of the transgenic tobacco plants (symptoms due to application of the herbicide) ([6]; T1 plants sprayed, evaluated one week after application): good tolerance
- sensitivity of transgenic tobacco plants compared to wild type (wt) plants ([6]; all tested independent lines, agronomically relevant dose): less sensitive
- tolerance of transgenic plants compared to the wild-type soybean plants [7]: superior tolerance
- tolerance of transgenic plants compared to the wild-type cotton plants [8]: superior tolerance

Source: US9078446B2, “Use of N-(tetrazol-4-yl)- or N-(triazol-3-yl)arylcarboxamides or their salts for controlling unwanted plants in areas of transgenic crop plants being tolerant to HPPD inhibitor herbicides” (BAYER INTELLECTUAL PROPERTY GMBH, priority 2011, dated 2015)
